Test results as given in patent publication US20140113899A1 (priority 2011, published 2014).
Where two headings read alike, the source gives them in different places.

Assays:
Puccinia recondida = assay: Test Example 7: controlling effect of isopyrazam and Compound I-1 on wheat brown rust; type: in vivo
Protocol: Isopyrazam and Compound I-1 were mixed at a given ratio and a test for a cooperative effect against wheat brown rust was carried out. First, a chemical suspension containing isopyrazam and Compound I-1 were prepared and sprayed on a pot of a wheat plant at two leaves stage so that thus sprayed isopyrazam and Compound I-1 became a predetermined dosage. Then, after the pot was left for approximately one hour at a room temperature so that the plant body dries, Puccinia recondida was inoculated by spraying an urediniospore suspended solution (1×10^5/ml) of Puccinia recondida. Then, the pot was kept in a wet chamber at 20° C. for 15 hours, and after 14 days, onset of disease was examined by a disease-onset area index. Here, the test was conducted by use of one plot pot.

Alternaria alternata = assay: Test Example 15: in vitro antimicrobial activity test with fenpropimorph and Compound I-1; type: cell-based
From the text: Then, a mycelial growth inhibition ratio against Alternaria alternata was obtained.

Fusarium graminearum [1] = type: in vivo
Fusarium graminearum [2] = type: in vivo; details: Fluopyram 20 g/ha alone
Fusarium graminearum [3] = type: in vivo; details: wettable powder containing only the compound, 500 mg/L, sprayed at 1,000 L/ha; fourth to seventh days after inoculation
Microdocum nivale [4] = assay: Test Example 9: in vitro antimicrobial activity test with benodanil and Compound I-1
Protocol: (§1) In the test, a flora disk of 4 mm in diameter was cut from an area around a colony of Microdocum nivale pre-cultured in advance in a pre-culture PDA medium, and Microdocum nivale was inoculated on the PDA medium where chemical agents were mixed. After culturing at 25° C. for 3 days, a diameter of a grown colony was measured. Then, a mycelial growth inhibition ratio was calculated by comparing the diameter of this grown colony with a diameter of a colony on a medium without the chemical agents. As in Test Example 1, a cooperative effect was judged by use of Colby's formula.

[5] = test system: Pseudocercoporella herpotrichoides; assay: Test Example 16: in vitro antimicrobial activity test with thiophanate-methyl and Compound I-1; type: cell-based
Microdocum nivale [6] = assay: Test Example 14: in vitro antimicrobial activity test with prothioconazole and Compound I-1
Glomerella cingulata = assay: Test Example 4: in vitro antimicrobial activity test with bixafen and Compound I-1; type: cell-based
Fusarium graminearum [7] = type: in vivo; remark: listed apart in the source
Rhizoctonia solani = assay: Test Example 18: in vitro antimicrobial activity test with chlorothalonil and Compound I-1; type: cell-based
Botrytis cinere = assay: Test Example 11: in vitro antimicrobial activity test with azoxystrobin and Compound I-1; type: cell-based
From the text: Then, a mycelial growth inhibition ratio against Botrytis cinere was obtained.

Pythium aphanidermatum = assay: Test Example 19: in vitro antimicrobial activity test with metalaxyl and Compound I-1; type: cell-based
Fusarium graminearum [8] = type: in vivo; remark: listed apart in the source
Microdocum nivale [9] = assay: Test Example 10: in vitro antimicrobial activity test with penthiopyrad and Compound I-1
Protocol: as §1
Then, a mycelial growth inhibition ratio against Microdocum nivale was obtained.

Gaeumannomyces graminis = assay: Test Example 13: in vitro antimicrobial activity test with prochloraz and Compound I-1; type: cell-based
From the text: Then, a mycelial growth inhibition ratio against Gaeumannomyces graminis was obtained.

Fusarium graminearum [10] = type: in vivo; details: Furametpyr 20 g/ha alone
Pyricularia oryzae [11] = type: cell-based
Pyricularia oryzae [12] = type: cell-based; remark: listed apart in the source
[13] = compound 25 g/ha alone (Metconazole 0 g/ha)
[14] = compound 50 g/ha alone (Metconazole 0 g/ha)
[15] = compound 75 g/ha alone (Metconazole 0 g/ha)

## CC(C)C1C2CCC1c1c(NC(=O)c3cn(C)nc3C(F)F)cccc12 (stereo not drawn) [Isopyrazam]
Puccinia recondida; Isopyrazam 3.125 g/ha alone
  Actual Protective Value: 57

## CC(Cc1ccc(C(C)(C)C)cc1)CN1C[C@@H](C)O[C@@H](C)C1 (stereo partly drawn) [Fenpropimorph]
Alternaria alternata; Fenpropimorph 0.0393 ppm alone
  Mycelial Growth Inhibition Ratio % Measured Value: 0%
Alternaria alternata; Fenpropimorph 0.1575 ppm alone
  Mycelial Growth Inhibition Ratio % Measured Value: 0%

## C[C@]1(CCl)CC[C@@H](Cc2ccc(F)cc2)[C@]1(O)Cn1cncn1 (racemic) [Compound I-11, (1RS,2SR,5 SR)-2-chloromethyl-5-(4-fluorobenzyl)-2-methyl-1-(1H-1,2,4-triazole-1-ylmethyl)cyclopentanol]
Fusarium graminearum [1]; [13]
  Actual Protective Value: 25.6
Fusarium graminearum [1]; [14]
  Actual Protective Value: 56.7
Fusarium graminearum [1]; [15]
  Actual Protective Value: 66.7

## O=C(NCCc1ncc(C(F)(F)F)cc1Cl)c1ccccc1C(F)(F)F [Fluopyram]
Fusarium graminearum [2]
  Actual Protective Value: 0

## OC(CC1CC1(Br)Br)(Cn1cncn1)C1(Cl)CC1 (stereo not drawn) [Compound XVII-2, 2-(1-chlorocyclopropyl)-1-(2,2-dibromocyclopropyl)-3-(1H-1,2,4-triazole-1-yl)propane-2-ol]
Fusarium graminearum [3]
  protective value: ≥ 90%

## O=C(Nc1ccccc1)c1ccccc1I [Benodanil]
Microdocum nivale [4]; Benodanil 0.0393 ppm alone
  Mycelial Growth Inhibition Ratio % Measured Value: 0%
Microdocum nivale [4]; Benodanil 0.1575 ppm alone
  Mycelial Growth Inhibition Ratio % Measured Value: 0%
Microdocum nivale [4]; Benodanil 0.63 ppm alone
  Mycelial Growth Inhibition Ratio % Measured Value: 0%
Microdocum nivale [4]; Benodanil 2.5 ppm alone
  Mycelial Growth Inhibition Ratio % Measured Value: 0%
Microdocum nivale [4]; Benodanil 10 ppm alone
  Mycelial Growth Inhibition Ratio % Measured Value: 4%

## COC(=O)NC(=S)Nc1ccccc1NC(=S)NC(=O)OC [Thiophanate-methyl]
[5]; Thiophanate-methyl 0.0393 ppm alone
  Mycelial Growth Inhibition Ratio % Measured Value: 0%
[5]; Thiophanate-methyl 0.1575 ppm alone
  Mycelial Growth Inhibition Ratio % Measured Value: 0%
[5]; Thiophanate-methyl 0.63 ppm alone
  Mycelial Growth Inhibition Ratio % Measured Value: 52%

## OC(Cc1ccccc1Cl)(Cn1nc[nH]c1=S)C1(Cl)CC1 (stereo not drawn) [Prothioconazole]
Microdocum nivale [6]; Prothioconazole 0.1575 ppm alone
  Mycelial Growth Inhibition Ratio % Measured Value: 11%
Microdocum nivale [6]; Prothioconazole 0.63 ppm alone
  Mycelial Growth Inhibition Ratio % Measured Value: 34%
Microdocum nivale [6]; Prothioconazole 2.5 ppm alone
  Mycelial Growth Inhibition Ratio % Measured Value: 76%

## Cn1cc(C(=O)Nc2ccc(F)cc2-c2ccc(Cl)c(Cl)c2)c(C(F)F)n1 [Bixafen]
Glomerella cingulata; Bixafen 0.0393 ppm alone
  Mycelial Growth Inhibition Ratio % Measured Value: 5%
Glomerella cingulata; Bixafen 0.1575 ppm alone
  Mycelial Growth Inhibition Ratio % Measured Value: 7%
Glomerella cingulata; Bixafen 0.63 ppm alone
  Mycelial Growth Inhibition Ratio % Measured Value: 7%
Glomerella cingulata; Bixafen 2.5 ppm alone
  Mycelial Growth Inhibition Ratio % Measured Value: 16%
Glomerella cingulata; Bixafen 10 ppm alone
  Mycelial Growth Inhibition Ratio % Measured Value: 38%

## COC(=O)N(OC)c1ccccc1COc1ccn(-c2ccc(Cl)cc2)n1 [Pyraclostrobin]
Fusarium graminearum [7]; Pyraclostrobin 10 g/ha alone
  Actual Protective Value: 10.6
Fusarium graminearum [7]; Pyraclostrobin 20 g/ha alone
  Actual Protective Value: 23.5
Fusarium graminearum [7]; Pyraclostrobin 30 g/ha alone
  Actual Protective Value: 36.5

## N#Cc1c(Cl)c(Cl)c(Cl)c(C#N)c1Cl [Chlorothalonil]
Rhizoctonia solani; Chlorothalonil 0.0393 ppm alone
  Mycelial Growth Inhibition Ratio % Measured Value: 0%
Rhizoctonia solani; Chlorothalonil 0.1575 ppm alone
  Mycelial Growth Inhibition Ratio % Measured Value: 15%
Rhizoctonia solani; Chlorothalonil 0.63 ppm alone
  Mycelial Growth Inhibition Ratio % Measured Value: 74%
Rhizoctonia solani; Chlorothalonil 2.5 ppm alone
  Mycelial Growth Inhibition Ratio % Measured Value: 84%
Rhizoctonia solani; Chlorothalonil 10 ppm alone
  Mycelial Growth Inhibition Ratio % Measured Value: 98%

## CO/C=C(/C(=O)OC)c1ccccc1Oc1cc(Oc2ccccc2C#N)ncn1 [Azoxystrobin]
Botrytis cinere; Azoxystrobin 0.1575 ppm alone
  Mycelial Growth Inhibition Ratio % Measured Value: 41%
Botrytis cinere; Azoxystrobin 0.63 ppm alone
  Mycelial Growth Inhibition Ratio % Measured Value: 60%
Botrytis cinere; Azoxystrobin 2.5 ppm alone
  Mycelial Growth Inhibition Ratio % Measured Value: 69%
Botrytis cinere; Azoxystrobin 10 ppm alone
  Mycelial Growth Inhibition Ratio % Measured Value: 71%

## COCC(=O)N(c1c(C)cccc1C)C(C)C(=O)OC (stereo not drawn) [Metalaxyl]
Pythium aphanidermatum; Metalaxyl 0.0393 ppm alone
  Mycelial Growth Inhibition Ratio % Measured Value: 3%
Pythium aphanidermatum; Metalaxyl 0.1575 ppm alone
  Mycelial Growth Inhibition Ratio % Measured Value: 7%
Pythium aphanidermatum; Metalaxyl 0.63 ppm alone
  Mycelial Growth Inhibition Ratio % Measured Value: 12%
Pythium aphanidermatum; Metalaxyl 2.5 ppm alone
  Mycelial Growth Inhibition Ratio % Measured Value: 14%
Pythium aphanidermatum; Metalaxyl 10 ppm alone
  Mycelial Growth Inhibition Ratio % Measured Value: 25%

## C[C@]1(CCl)CC[C@@H](Cc2ccccc2)[C@]1(O)Cn1cncn1 (racemic) [Compound I-12, (1RS,2SR,5SR)-2-chloromethyl-5-benzyl-2-methyl-1-(1H-1,2,4-triazole-1-ylmethyl)cyclopentanol]
Fusarium graminearum [1]; [13]
  Actual Protective Value: 40.0
Fusarium graminearum [1]; [14]
  Actual Protective Value: 65.6
Fusarium graminearum [1]; [15]
  Actual Protective Value: 75.6

## O=C(Nc1ccccc1-c1ccc(Cl)cc1)c1cccnc1Cl [Boscalid]
Fusarium graminearum [8]; Boscalid 20 g/ha alone
  Actual Protective Value: 0
Fusarium graminearum [8]; Boscalid 40 g/ha alone
  Actual Protective Value: 4
Fusarium graminearum [8]; Boscalid 60 g/ha alone
  Actual Protective Value: 15
Fusarium graminearum [8]; Boscalid 80 g/ha alone
  Actual Protective Value: 8

## CC(C)CC(C)c1sccc1NC(=O)c1cn(C)nc1C(F)(F)F (stereo not drawn) [Penthiopyrad]
Microdocum nivale [9]; Penthiopyrad 0.0393 ppm alone
  Mycelial Growth Inhibition Ratio % Measured Value: 2%
Microdocum nivale [9]; Penthiopyrad 0.1575 ppm alone
  Mycelial Growth Inhibition Ratio % Measured Value: 2%
Microdocum nivale [9]; Penthiopyrad 0.63 ppm alone
  Mycelial Growth Inhibition Ratio % Measured Value: 2%
Microdocum nivale [9]; Penthiopyrad 2.5 ppm alone
  Mycelial Growth Inhibition Ratio % Measured Value: 7%
Microdocum nivale [9]; Penthiopyrad 10 ppm alone
  Mycelial Growth Inhibition Ratio % Measured Value: 36%

## C[C@@]1(CCl)CC[C@H](Cc2ccc(Cl)cc2)[C@@]1(O)Cn1cncn1 (racemic) [Compound I-1, (1RS,2SR,5SR)-5-(4-chlorobenzyl)-2-chloromethyl-2-methyl-1-(1H-1,2,4-triazole-1-ylmethyl)cyclopentanol]
Gaeumannomyces graminis; Compound I-1 0.02 ppm alone
  Mycelial Growth Inhibition Ratio % Measured Value: 0%
Gaeumannomyces graminis; Compound I-1 0.078 ppm alone
  Mycelial Growth Inhibition Ratio % Measured Value: 17%
Gaeumannomyces graminis; Compound I-1 0.313 ppm alone
  Mycelial Growth Inhibition Ratio % Measured Value: 74%
Microdocum nivale [6]; Compound I-1 0.078 ppm alone
  Mycelial Growth Inhibition Ratio % Measured Value: 8%
Microdocum nivale [6]; Compound I-1 0.313 ppm alone
  Mycelial Growth Inhibition Ratio % Measured Value: 34%
Microdocum nivale [9]; Compound I-1 0.005 ppm alone
  Mycelial Growth Inhibition Ratio % Measured Value: 5%
Microdocum nivale [9]; Compound I-1 0.02 ppm alone
  Mycelial Growth Inhibition Ratio % Measured Value: 10%
Microdocum nivale [9]; Compound I-1 0.078 ppm alone
  Mycelial Growth Inhibition Ratio % Measured Value: 12%
Glomerella cingulata; Compound (I) 0.005 ppm alone
  Mycelial Growth Inhibition Ratio % Measured Value: 13%
Glomerella cingulata; Compound (I) 0.02 ppm alone
  Mycelial Growth Inhibition Ratio % Measured Value: 23%
[5]; Compound I-1 0.078 ppm alone
  Mycelial Growth Inhibition Ratio % Measured Value: 3%
[5]; Compound I-1 0.313 ppm alone
  Mycelial Growth Inhibition Ratio % Measured Value: 42%
Fusarium graminearum [7]; Compound (I) 4 g/ha alone
  Actual Protective Value: 9.4
Fusarium graminearum [7]; Compound (I) 8 g/ha alone
  Actual Protective Value: 12.9
Pythium aphanidermatum; Compound I-1 0.005 ppm alone
  Mycelial Growth Inhibition Ratio % Measured Value: 9%
Fusarium graminearum [3]
  protective value: ≥ 90%
Botrytis cinere; Compound I-1 0.02 ppm alone
  Mycelial Growth Inhibition Ratio % Measured Value: 25%
Botrytis cinere; Compound I-1 0.078 ppm alone
  Mycelial Growth Inhibition Ratio % Measured Value: 47%
Rhizoctonia solani; Compound I-1 1.25 ppm alone
  Mycelial Growth Inhibition Ratio % Measured Value: 68%
Microdocum nivale [4]; Compound I-1 0.078 ppm alone
  Mycelial Growth Inhibition Ratio % Measured Value: 8%
Puccinia recondida; Compound I-1 0.1875 g/ha alone
  Actual Protective Value: 13
Puccinia recondida; Compound I-1 0.375 g/ha alone
  Actual Protective Value: 37
Puccinia recondida; Compound I-1 0.75 g/ha alone
  Actual Protective Value: 67
Puccinia recondida; Compound I-1 1.5 g/ha alone
  Actual Protective Value: 80
Puccinia recondida; Compound I-1 3 g/ha alone
  Actual Protective Value: 93
Alternaria alternata; Compound I-1 0.02 ppm alone
  Mycelial Growth Inhibition Ratio % Measured Value: 3%
Alternaria alternata; Compound I-1 0.078 ppm alone
  Mycelial Growth Inhibition Ratio % Measured Value: 24%
Alternaria alternata; Compound I-1 0.313 ppm alone
  Mycelial Growth Inhibition Ratio % Measured Value: 50%

## CC1(C)CCC(Cc2ccc(Cl)cc2)C1(O)Cn1cncn1 (stereo not drawn) [Metconazole]
Fusarium graminearum [1]; Metconazole 10 g/ha alone
  Actual Protective Value: 13.9
Fusarium graminearum [1]; Metconazole 20 g/ha alone
  Actual Protective Value: 26.7

## CCCN(CCOc1c(Cl)cc(Cl)cc1Cl)C(=O)n1ccnc1 [Prochloraz]
Gaeumannomyces graminis; Prochloraz 0.0393 ppm alone
  Mycelial Growth Inhibition Ratio % Measured Value: 12%
Gaeumannomyces graminis; Prochloraz 0.1575 ppm alone
  Mycelial Growth Inhibition Ratio % Measured Value: 69%
Gaeumannomyces graminis; Prochloraz 0.63 ppm alone
  Mycelial Growth Inhibition Ratio % Measured Value: 98%

## Cc1nn(C)c(Cl)c1C(=O)Nc1cccc2c1C(C)OC2(C)C (stereo not drawn) [Furametpyr]
Fusarium graminearum [10]
  Actual Protective Value: 0

## CC(C)(C)C(O)(CCc1ccc(Cl)cc1)Cn1cncn1 (stereo not drawn) [Tebuconazole]
Pyricularia oryzae [11]; Tebuconazole 0.0393 ppm alone
  Mycelial Growth Inhibition Ratio % Measured Value: 3%
Pyricularia oryzae [11]; Tebuconazole 0.1575 ppm alone
  Mycelial Growth Inhibition Ratio % Measured Value: 12%
Pyricularia oryzae [11]; Tebuconazole 0.63 ppm alone
  Mycelial Growth Inhibition Ratio % Measured Value: 50%

## CC(C)C1CCC(Cc2ccc(Cl)cc2)C1(O)Cn1cncn1 (stereo not drawn) [Ipconazole]
Pyricularia oryzae [12]; Ipconazole 0.0393 ppm alone
  Mycelial Growth Inhibition Ratio % Measured Value: 11%
Pyricularia oryzae [12]; Ipconazole 0.1575 ppm alone
  Mycelial Growth Inhibition Ratio % Measured Value: 33%
Pyricularia oryzae [12]; Ipconazole 0.63 ppm alone
  Mycelial Growth Inhibition Ratio % Measured Value: 72%
